According to US20040260721A1, “Methods and systems for creation of a coherence database” (priority 2003, published 2004):
“Also recorded” adds a separate entry of the source.

Assays:
Saccharomyces cerevisiae = test: Biochemical and gene expression profiling with pathway analysis of yeast treated with fungicidal drugs; format: cell-based; conditions: inhibitory dose; three replicate samples per drug; single harvest timepoint
Procedure: An experiment was performed to attempt to characterize four fungicidal drugs: Amphoteracin B, Ketaconazole, Fluconazole, and Posaconazole. Yeast samples (Saccharomyces cerevisiae) were treated with an inhibitory dose of each drug, using three replicate samples per drug, and harvested at a single timepoint. Biochemical profiling and gene expression profiling data were gathered on each yeast sample, and summarized and related to KEGG as described in Example 6.

liver = test: Biochemical profiling (LC/MS) of livers from rats dosed with acetaminophen; format: in vivo; conditions: rat liver
Procedure: Acetaminophen overdose is one of the leading causes of liver failure. In this experiment, rats were dosed with acetaminophen and livers were harvested across a time course. Two doses of acetaminophen were used (50 mg/kg and 1500 mg/kg), as well as a control group that received no acetaminophen. The harvest times were 6, 18, 24, and 48 hours. Three rats (biological replicates) were in each treatment group, wherein a treatment group is defined as each combination of dose and time. […] Still referring to FIG. 2, the information recorded in data tables 221, 223, and 224 could also be recorded in data tables 218 and 219 (time_summary_set, and tissue_summary_set), thus allowing comparison by time or tissue type.
The resulting liver samples were extracted and analyzed by biochemical profiling (BCP) using LC/MS in both positive and negative modes, yielding a biochemical profile containing intensities on more than 100 compounds. Three technical replicates of each rat liver were analyzed. […]
A summary set was created for each treatment group, and the experimental information associated with that treatment group (treatment, dosage, timepoint, baseline of comparison) was recorded in the coherence database. […] Comparing a treated group to a control group created summaries that were recorded in the treatment_summary_set data table (FIG. 2, table 217) of the coherence database schema. […]

Structure (SMILES)	comparison of pathway perturbations between treatments (Saccharomyces cerevisiae)	timepoint with most perturbed compounds (biochemical profile vs matched control) (liver; 50 mg/kg and 1500 mg/kg, harvest at 6, 18, 24 and 48 hours)	pathway showing the primary metabolic disturbance (liver; 18 hour timepoint, pathway viewing tool (KEGG))
CC[C@@H]([C@H](C)O)n1ncn(-c2ccc(N3CCN(c4ccc(OC[C@@H]5CO[C@@](Cn6cncn6)(c6ccc(F)cc6F)C5)cc4)CC3)cc2)c1=O [Posaconazole]	behaved most like Fluconazole; also recorded: perturbations that were unlike those of Amphoteracin B	–	–
OC(Cn1cncn1)(Cn1cncn1)c1ccc(F)cc1F [Fluconazole]	perturbations that were unlike those of Amphoteracin B	–	–
CC(=O)Nc1ccc(O)cc1 [acetaminophen]	–	more compounds were perturbed at the 18 hour timepoint than any other	nitrogen metabolism pathway was most likely the source of the primary metabolic disturbance
